Laboratory results taken from US20080038809A1, “ISOLATED LECTIN POLYPEPTIDES CONSISTING OF TRUNCATED […] UDP-GalNAc:POLYPEPTIDE N- ACETYLGALACTOSAMINYLTRANSFERASES” (GLYCOZYM APS, priority 2002, published 2008).
Read-outs that look alike come from different tables or passages of the source. Values belong to the compound of their own block, whether it stands above or below them.

Assays:
[1] = system: T, Tn and sialyl-Tn in HT-29 MTX cells; assay: O-linked mucin carbohydrate structures T, Tn and sialyl-Tn in HT-29 MTX cells by immuno-histochemistry; format: cell-based, human; settings: 5 mM, compared to controls
Excerpt: In order to evaluate GalNAcβ-benzyl as an inhibitor of mucin glycosylation and secretion we used the cultured colon carcinoma cells of mucin secreting phenotypes: HT-29 metotrexate (MTX) cells selected from the HT-29 cell line by culture in the presence of MTX (kind gift from G. Huet, France). The HT-29 MTX cells were selected to yield a goblet cell like phenotype with constitutive production of MUC5AC. In order to ensure proper goblet cell differentiation the HT29MTX cell line were continuously grown up to 21 days in the presence of 5 mM GalNAcα-benzyl, 5 mM GalNAcβ-benzyl, 5 mM GlcNAcα-benzyl and without inhibitor using culture conditions as described in Hennebicq-Reig et al. (Permanent exposure of mucin-secreting HT-29 cells to benzyl-N-acetyl-alpha-D-galactosaminide induces abnormal O-glycosylation of mucins and inhibits constitutive and stimulated MUC5AC secretion. Biochem J. 1998; 334:283-95). […] Furthermore the viscosity of the media from cells with and without inhibitor was evaluated using viscosity micro-measurement.

[2] = system: core 1 α2-3sialyltransferase ST3Gal-I; settings: cited from earlier work
[3] = molecular target: human GalNAc-T2 (UDP-GalNAc:polypeptide N-acetylgalactosaminyltransferase T2), secreted soluble enzyme (sT2), wild type (Homo sapiens, UniProt Q10471); assay: biochemical; settings: read-out: Concentration required for 50% inhibition (IC50), binding to GalNAc-MUC1 glycopeptide
Chain of human GalNAc-T2 (UDP-GalNAc:polypeptide N-acetylgalactosaminyltransferase T2), secreted soluble enzyme (sT2), wild type (Q10471 52-571 limits assumed): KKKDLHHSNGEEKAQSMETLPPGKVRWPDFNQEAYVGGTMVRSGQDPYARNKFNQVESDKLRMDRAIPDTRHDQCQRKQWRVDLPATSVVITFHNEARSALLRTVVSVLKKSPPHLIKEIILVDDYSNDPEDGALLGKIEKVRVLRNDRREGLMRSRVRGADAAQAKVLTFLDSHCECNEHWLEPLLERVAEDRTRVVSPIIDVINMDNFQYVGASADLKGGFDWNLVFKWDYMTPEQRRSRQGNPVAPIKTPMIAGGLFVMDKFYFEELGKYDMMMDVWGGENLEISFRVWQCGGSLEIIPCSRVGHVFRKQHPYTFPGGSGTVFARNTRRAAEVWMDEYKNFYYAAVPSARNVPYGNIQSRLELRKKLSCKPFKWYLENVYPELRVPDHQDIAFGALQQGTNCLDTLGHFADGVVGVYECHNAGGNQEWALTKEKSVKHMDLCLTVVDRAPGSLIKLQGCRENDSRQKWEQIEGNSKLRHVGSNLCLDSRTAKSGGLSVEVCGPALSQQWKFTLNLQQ
Method: (§1) The pH of 1 ml purified protein (0.3 mg/ml) in PBS was adjusted to pH 9 with 1 M NaOH and 40 μl N-hydroxy-succinimidobiotin (Sigma) dissolved in DMF (10 mg/ml) was added. The solution was mixed end-over-end for 2 hours at room temperature, and dialyzed three times against PBS and an equal volume of glycerol was added. The biotinylated proteins were stored at −20° C. in 50% glycerol until use.
(§2) Glycopeptides were purified by C-18 reverse phase HPLC. Peptides were custom synthesized by Neosystems (Strasbourg). Biotinylated Helix Pomatia lectin (HPA) was from KemEnTec (Denmark). Anti-MUC1 HMFG2 monoclonal antibody was a generous gift from Joyce Taylor-Papadimitriou.
(§3) Direct binding ELISA assay was developed as follows: Polystyrene microtiter plates (Maxisorb, Nunc, Denmark) were coated with peptides or enzymatically glycosylated glycopeptides in PBS overnight at 4° C. Plates were washed and blocked with 0.1% Tween20 and 0.2% BSA in PBS for 1 h at room temperature, followed by incubation with biotinylated proteins in PBS with 0.05% Tween20 for 2 h at room temperature. After four washes with PBS, plates were incubated with 1:2,000 dilution streptavidin-HRP (Sigma) in PBS for 30 min at room temperature and washed four times with PBS. […]

[4] = molecular target: human GalNAc-T4 (UDP-GalNAc:polypeptide N-acetylgalactosaminyltransferase T4), secreted soluble enzyme (sT4), wild type (Homo sapiens, UniProt Q8N4A0); settings: read-out: Concentration required for 50% inhibition (IC50), binding to GalNAc-MUC1 glycopeptide
Chain of human GalNAc-T4 (UDP-GalNAc:polypeptide N-acetylgalactosaminyltransferase T4), secreted soluble enzyme (sT4), wild type (Q8N4A0 36-578 limits assumed): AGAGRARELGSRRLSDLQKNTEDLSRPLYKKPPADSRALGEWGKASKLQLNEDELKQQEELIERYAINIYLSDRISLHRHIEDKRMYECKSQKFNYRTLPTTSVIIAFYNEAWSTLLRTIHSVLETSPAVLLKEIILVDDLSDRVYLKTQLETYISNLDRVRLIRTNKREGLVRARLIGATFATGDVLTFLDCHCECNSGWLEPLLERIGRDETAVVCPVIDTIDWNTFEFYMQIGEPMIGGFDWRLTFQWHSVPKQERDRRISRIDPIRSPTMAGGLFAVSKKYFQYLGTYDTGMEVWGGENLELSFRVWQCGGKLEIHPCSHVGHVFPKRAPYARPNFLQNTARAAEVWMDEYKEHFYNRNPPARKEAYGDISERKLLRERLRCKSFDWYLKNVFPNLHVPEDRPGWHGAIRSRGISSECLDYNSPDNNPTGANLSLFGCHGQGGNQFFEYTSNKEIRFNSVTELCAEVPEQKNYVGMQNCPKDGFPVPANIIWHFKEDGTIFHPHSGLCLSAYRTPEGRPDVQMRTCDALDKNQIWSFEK
Method: as §1, §2, §3

[5] = molecular target: human GalNAc-T4 (UDP-GalNAc:polypeptide N-acetylgalactosaminyltransferase T4) isolated truncated lectin domain (T4ld), HIS-tagged, amino acid residues 405-578 o (Homo sapiens, UniProt Q8N4A0); assay: biochemical; format: binding; settings: read-out: Concentration required for 50% inhibition (IC50), binding to GalNAc-MUC1 glycopeptide
Chain of human GalNAc-T4 (UDP-GalNAc:polypeptide N-acetylgalactosaminyltransferase T4) isolated truncated lectin domain (T4ld), HIS-tagged, amino acid residues 405-578 o (Q8N4A0 405-578): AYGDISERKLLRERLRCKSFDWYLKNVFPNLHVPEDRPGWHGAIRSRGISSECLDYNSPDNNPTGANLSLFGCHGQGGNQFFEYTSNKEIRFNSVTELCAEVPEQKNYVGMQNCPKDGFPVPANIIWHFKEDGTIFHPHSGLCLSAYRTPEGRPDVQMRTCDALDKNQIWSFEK
Excerpt: (§4) In order to minimize the size and functional complexity of GalNAc-transferase lectins to be used as probes for binding studies, we used multiple sequence alignment analysis to predict and design suitable expression constructs for isolated lectin domains (FIG. 2). In the present invention a direct binding assay was developed using isolated lectin domains of GalNAc-T4 and -T2 with minimal size (FIG. 5). […] The lectin Helix Pomatia (HP) was used as a control plant lectin with known binding specificity for […].
(§5) Direct binding ELISA assay was developed as follows: Polystyrene microtiter plates (Maxisorb, Nunc, Denmark) were coated with peptides or enzymatically glycosylated glycopeptides in PBS overnight at 4° C. Plates were washed and blocked with 0.1% Tween20 and 0.2% BSA in PBS for 1 h at room temperature, followed by incubation with biotinylated proteins in PBS with 0.05% Tween20 for 2 h at room temperature. After four washes with PBS, plates were incubated with 1:2,000 dilution streptavidin-HRP (Sigma) in PBS for 30 min at room temperature and washed four times with PBS. Development was performed with 0.5 mg/ml o-phenylenediamine and 0.02% H2O2 at room temperature for 15 min, and reaction stopped by adding 100 μl/well of 0.5 N H2SO4. Competitive inhibition assays were done at end-point titers of GalNAc-transferase proteins with one hour preincubations with inhibitor.
(§6) In binding studies using lectins without biotinylation antibodies to the HIS-tag and the T7-tag, or in some experiments antibodies raised to GalNAc-T2 and -T4 enzymes were used to detect binding.
(§7) Inhibition experiments were used to further define the binding specificity of GalNAc-T2 and -T4 secreted soluble enzymes as well as lectin domains compared to Helix Pomatia lectin (Table IV).
(§8) The ligand target used in this Example is a GalNAc-MUC1 glycopeptide produced enzymatically from synthetic peptides.

[6] = molecular target: T1, secreted soluble GalNAc-T2 (Homo sapiens, UniProt Q10471); assay: Inhibition of secreted soluble GalNAc-T2 (sT2) binding to GalNAc-MUC1 glycopeptide, ELISA
T1 construct: 6xHis (N); thrombin cleavage site (N); T7 antibody site (N); made in house; host or cells: baculovirus (pAcGP67A), High Five insect cells
T1 sequence (Q10471 52-571 limits assumed): as the sequence (Q10471 52-571 limits assumed) above
Method: as §5, §7

[7] = molecular target: T2, secreted soluble GalNAc-T4 (Homo sapiens, UniProt Q8N4A0); assay: Inhibition of secreted soluble GalNAc-T4 (sT4) binding to GalNAc-MUC1 glycopeptide, ELISA
T2 construct: 6xHis (N); thrombin cleavage site (N); T7 antibody site (N); made in house; host or cells: baculovirus (pAcGP67A), High Five insect cells
T2 sequence (Q8N4A0 36-578 limits assumed): as the sequence (Q8N4A0 36-578 limits assumed) above
Method: as §5, §7

GalNAc-T4 lectin domain = molecular target: T3, GalNAc-T4 lectin domain (Homo sapiens, UniProt Q8N4A0); assay: Inhibition of GalNAc-T4 lectin domain (T4ld) binding to GalNAc-MUC1 glycopeptide, ELISA
T3 construct: comprises amino acid residues 405-578 of GALNT4; made in house; host or cells: baculovirus (pAcGP67-A), virus made in Sf9, protein produced in High Five insect cells
T3 sequence (Q8N4A0 405-578): as the sequence (Q8N4A0 405-578) above
Method: as §5, §6, §7

[8] = molecular target: Helix Pomatia lectin (HPA) (Helix pomatia, UniProt Q2F1K8); assay: Inhibition of Helix Pomatia lectin (HPA) binding, ELISA
Chain of Helix Pomatia lectin (HPA) (Q2F1K8 entry or part of it): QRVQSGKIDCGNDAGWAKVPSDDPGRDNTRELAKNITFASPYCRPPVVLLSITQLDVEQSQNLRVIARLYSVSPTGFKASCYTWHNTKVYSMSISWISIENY
Method: as §2, §5, §7

GalNAc-T2 lectin domain = molecular target: T4, GalNAc-T2 lectin domain (Homo sapiens, UniProt Q10471); assay: Inhibition of GalNAc-T2 lectin domain (T2ld) binding to GalNAc-MUC1 glycopeptide, ELISA
T4 construct: comprises amino acid residues 408-571 of GALNT2; made in house; host or cells: baculovirus (pAcGP67-A), virus made in Sf9, protein produced in High Five insect cells
T4 sequence (Q10471 408-571): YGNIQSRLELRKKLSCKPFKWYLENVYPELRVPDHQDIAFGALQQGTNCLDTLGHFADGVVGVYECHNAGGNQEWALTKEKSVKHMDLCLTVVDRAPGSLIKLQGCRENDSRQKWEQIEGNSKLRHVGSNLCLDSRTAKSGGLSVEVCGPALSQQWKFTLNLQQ
Method: as §5, §6, §7

[9] = system: GalNAc-T2 and -T4 secreted soluble enzymes as well as lectin domains; assay: Inhibition of GalNAc-transferase lectin binding to GalNAc-glycopeptides, statements on GalNAc-T2 and -T4 together; parameters: species or system human; settings: enzymes and isolated lectins
Method: as §5
Lectins and antibodies to carbohydrates usually recognize the anomeric configuration of the sugar structures they bind.
as §7

[10] = molecular target: human GalNAc-T4 (UDP-GalNAc:polypeptide N-acetylgalactosaminyltransferase T4) isolated truncated lectin domain (T4ld), HIS-tagged, amino acid residues 405-578 of GALNT4 (Homo sapiens, UniProt Q8N4A0); assay: biochemical; format: binding; settings: binding to GalNAc-MUC1 glycopeptide
Chain of human GalNAc-T4 (UDP-GalNAc:polypeptide N-acetylgalactosaminyltransferase T4) isolated truncated lectin domain (T4ld), HIS-tagged, amino acid residues 405-578 of GALNT4 (Q8N4A0 405-578): as the sequence (Q8N4A0 405-578) above
Excerpt: as §4, §5, §6, §7, §8

SMILES: CC(=O)N[C@H]1[C@H](OCc2ccccc2)O[C@H](CO)[C@@H](O)[C@@H]1O [BzlβGlcNAc]
O-linked mucin carbohydrate structures T, Tn and sialyl-Tn [1]: upregulated

SMILES: CC(=O)N[C@H]1[C@@H](OCc2ccccc2)O[C@H](CO)[C@H](O)[C@@H]1O[C@@H]1O[C@H](CO)[C@H](O)[C@H](O)[C@H]1O [Galβ1-3GalNAcα-benzyl]
substrate for ST3Gal-I [2]: efficient substrate

The next lines start with the values.

IC50 [3]: 5 mM
IC50 [4]: 1 mM
IC50 [5]: 5 mM
SMILES: CC(=O)N[C@H]1[C@@H](Oc2ccccc2)O[C@H](CO)[C@H](O)[C@@H]1O [PhlαGalNAc]

IC50 [6]: 65 mM
IC50 [7]: 30 mM
IC50 (GalNAc-T4 lectin domain): 50 mM
inhibition of Helix Pomatia binding, in words [8]: strong inhibitor
IC50 (GalNAc-T2 lectin domain): > 100 mM
inhibition of GalNAc-T2 and -T4 lectin mediated binding, in words [9]: not a significant inhibitor
SMILES: CC(=O)N[C@H]1[C@@H](OP(=O)(O)OP(=O)(O)OC[C@H]2O[C@@H](n3ccc(=O)[nH]c3=O)[C@H](O)[C@@H]2O)O[C@H](CO)[C@H](O)[C@@H]1O [UDPαGalNAc, UDP-N-acetylgalactosamine]

IC50 ([6]; read-out: sT2: Concentration required for 50% inhibition (IC50)): > 10 mM
IC50 (GalNAc-T2 lectin domain; read-out: T2ld: Concentration required for 50% inhibition (IC50)): > 10 mM
IC50 [10]: 8 mM
SMILES: CC(=O)N[C@H]1[C@H](Oc2ccc([N+](=O)[O-])cc2)O[C@H](CO)[C@H](O)[C@@H]1O [pNPβGalNAc]
